# In patent US20020082273A1, “Agents for use in the treatment of alzheimer's disease” (priority 1998, published 2002):
# “And” between values parts separate entries of the source, which are not always exact repeats. Identical values can stand only once. “Also recorded” adds a separate entry of the source. Like-named read-outs stand apart in the source and are kept apart here.
# Key:
# [1] = cited from earlier work; for LogK, Co: Table 1, K=[ML]/[M][L]
# [2] = cited from earlier work; for LogK, Zn: Table 1, K=[ML]/[M][L]
# [3] = cited from earlier work; for LogK, Ca: Table 1, K=[ML]/[M][L]
# [4] = cited from earlier work; for LogK, Mg: Table 1, K=[ML]/[M][L]
# [5] = cited from earlier work; for LogK, Fe: Table 1, K=[ML]/[M][L]
# [6] = cited from earlier work; for LogK, Cu: K=[ML]/[M][L]
# [7] = cited from earlier work; for LogK, Al: Table 1, K=[ML]/[M][L]
# [8] = test system: Aβ deposits of AD-affected brain; test: Extraction (solubilization) of Aβ from post-mortem AD brain tissue homogenates, western blot densitometry; type: biochemical, human
# Experimental: Identical regions of frontal cortex (0.5 g) from post-mortem brains of individuals with AD, as well as non-AD conditions, were homogenized in TBS, […] ±metal chelators.
# 0.5 g of prefrontal cortex was dissected and homogenized in PBS ±chelator as indicated. The homogenate was then centrifuged (100,000 g) and the supernatant removed, and a sample taken for western blot assay using anti-Aβ specific antibodies after Tricine PAGE. Densitometry was performed against synthetic peptide standards.
# Densitometry of Aβ western blots (FIGS. 19A-19C) was performed for a series of 6 AD brain samples homogenized in the presence of chelators as indicated.
# Next the ability of clioquinol to extract Aβ deposits from human brain was examined. […] Fragments of prefrontal cortex from individual post-mortem samples with the histopathological diagnosis of AD were homogenized in PBS, pH 7.4, and then pelleted after centrifugation. The pellets were then washed with agitation twice for 30 minutes, 4° C., with PBS or PBS containing clioquinol (100% =0.8 μM clioquinol). The suspension was then pelleted (10,000 g for 30 minutes) and the supernatant removed (S1) for western blot analysis using Aβ-specific antibodies (illustrated). The pellet was treated a second time in this experiment with agitation and centrifugation, and the second supernatant (S2) analysed.
# Soluble Aβ (ng/g tissue) was determined as described. Total Aβ was determined following formic acid extraction of otherwise untreated tissue.
# Suitable quantities of gray matter from each subject were minced to serve as pools of homogenous tissue. […] To obtain the soluble fraction, the homogenates were centrifuged at 100,000× g for 30 min (Beckman J180, Beckman instruments, Fullerton, California) and the supernatant collected in 1 ml aliquots and stored on ice or immediately frozen at −70° C. In each experiment, all protein was precipitated from 1 ml of supernatant from each treatment group using 1:5 ice cold 10% trichloracetic acid and pelleted in a bench top microfuge (Heraeus, Osteroder, Germany) at 10,000× g. The remaining pellet was frozen at −70° C.
# Precipitated protein was subjected to SDS polyacrylamide gel electrophoresis (SDS-PAGE) on Novex pre-cast 10-20% Tris-Tricine gels followed by Western transfer onto 0.2 μm nitrocellulose membrane (Biorad, Hercules, Calif.). […] Each gel included two or more lanes containing known quantities of synthetic Aβ which served as internal reference standards. Blot images were captured by a Relisys scanner with transparency adapter (Teco Information Systems, Taiwan, ROC) and densitometry conducted using the NIH Image 1.6 program (National Institutes for Health, USA. Modified for PC by Scion Corporation, Frederick, Md.), calibrated using a step diffusion chart. For quantitation of Aβ in brain extracts, the internal reference standards of synthetic Aβ were utilized to produce standard curves from which values were interpolated.
# [9] = Residual metals in post-centrifugation pellets of brain homogenates (ICP-AES); type: biochemical, human; conditions: Table 6
compound,measurement,setting,value
c1ccc(-c2ccnc3c2ccc2c(-c4ccccc4)ccnc23)cc1 [Bathophenanthroline],"LogK, Co",[1],0
same,"LogK, Zn",[2],6.9
same,"LogK, Ca",[3],0
same,"LogK, Mg",[4],0
same,"LogK, Fe",[5],5.6
same,"LogK, Cu",[6]; Table 1,8.8
same,"LogK, Al",[7],0
"O=C(O)CN(CCN(CC(=O)O)CC(=O)O)CCN(CC(=O)O)CC(=O)O [DTPA, diethylenetriaminopenta acetic acid]",log stability constant,"[6]; FIG. 34C legend, metal not given, Cu^2+ implied",21.1
O=C(O)CN(CCOCCOCCN(CC(=O)O)CC(=O)O)CC(=O)O [EGTA],"LogK, Co",[1],12.4
same,"Stability constant logK10, Co","[1]; Table 5, NIST database",12.35
same,"LogK, Zn",[2],12.6
same,"Stability constant logK10, Zn","[2]; Table 5, NIST database",12.6
same,"LogK, Ca",[3],10.9
same,"Stability constant logK10, Ca","[3]; Table 5, NIST database",10.86
same,"LogK, Mg",[4],5.3
same,"Stability constant logK10, Mg","[4]; Table 5, NIST database",5.28
same,"LogK, Fe",[5],11.8
same,"Stability constant logK10, Fe","[5]; Table 5, NIST database",11.8
same,Effect of Chelators upon extraction of Aβ (% change from control),"[8]; 0.1 mM chelator, mean n = 6 AD brain samples, above PBS extraction alone",207%
same,Effect of Chelators upon extraction of Aβ (% change from control),"[8]; 2.0 mM chelator, mean n = 6 AD brain samples, above PBS extraction alone",46%
same,Aβ signal versus PBS control,[8]; EGTA 2 mM,virtually abolished the signal for Aβ; also recorded: diminution in Aβ signal
same,efficiency in extracting Aβ,"[8]; neutral saline buffer, TPEN 5 μM",less efficient
same,"LogK, Cu",[6]; Table 1,17.6
same,"Stability constant logK10, Cu","[6]; Table 5, NIST database",17.57
same,"LogK, Al",[7],13.9
same,"Stability constant logK10, Al","[7]; Table 5, NIST database",13.9
same,Residual Al in extracted pellet,[9]; chelator 0.001 mM,43 mg/kg
same,Residual Ca in extracted pellet,[9]; chelator 0.001 mM,862 mg/kg
same,Residual Cu in extracted pellet,[9]; chelator 0.001 mM,12 mg/kg
same,Residual Fe in extracted pellet,[9]; chelator 0.001 mM,281 mg/kg
same,Residual Mg in extracted pellet,[9]; chelator 0.001 mM,237 mg/kg
same,Residual Zn in extracted pellet,[9]; chelator 0.001 mM,49 mg/kg
same,Residual Al in extracted pellet,[9]; chelator 0.004 mM,73 mg/kg
same,Residual Ca in extracted pellet,[9]; chelator 0.004 mM,795 mg/kg
same,Residual Cu in extracted pellet,[9]; chelator 0.004 mM,11 mg/kg
same,Residual Fe in extracted pellet,[9]; chelator 0.004 mM,247 mg/kg
same,Residual Mg in extracted pellet,[9]; chelator 0.004 mM,228 mg/kg
same,Residual Zn in extracted pellet,[9]; chelator 0.004 mM,53 mg/kg
same,Residual Al in extracted pellet,[9]; chelator 0.01 mM,61 mg/kg
same,Residual Ca in extracted pellet,[9]; chelator 0.01 mM,675 mg/kg
same,Residual Cu in extracted pellet,[9]; chelator 0.01 mM,13 mg/kg
same,Residual Fe in extracted pellet,[9]; chelator 0.01 mM,272 mg/kg
same,Residual Mg in extracted pellet,[9]; chelator 0.01 mM,213 mg/kg
same,Residual Zn in extracted pellet,[9]; chelator 0.01 mM,54 mg/kg
same,Residual Al in extracted pellet,[9]; chelator 0.04 mM,104 mg/kg
same,Residual Ca in extracted pellet,[9]; chelator 0.04 mM,1402 mg/kg
same,Residual Cu in extracted pellet,[9]; chelator 0.04 mM,13 mg/kg
same,Residual Fe in extracted pellet,[9]; chelator 0.04 mM,438 mg/kg
same,Residual Mg in extracted pellet,[9]; chelator 0.04 mM,247 mg/kg
same,Residual Zn in extracted pellet,[9]; chelator 0.04 mM,71 mg/kg
same,Residual Al in extracted pellet,[9]; chelator 2.0 mM,62 mg/kg
same,Residual Ca in extracted pellet,[9]; chelator 2.0 mM,519 mg/kg
same,Residual Cu in extracted pellet,[9]; chelator 2.0 mM,13 mg/kg
same,Residual Fe in extracted pellet,[9]; chelator 2.0 mM,238 mg/kg
same,Residual Mg in extracted pellet,[9]; chelator 2.0 mM,191 mg/kg
same,Residual Zn in extracted pellet,[9]; chelator 2.0 mM,27 mg/kg
same,Residual Al in extracted pellet,[9]; chelator 5.0 mM,27 mg/kg
same,Residual Ca in extracted pellet,[9]; chelator 5.0 mM,455 mg/kg
same,Residual Cu in extracted pellet,[9]; chelator 5.0 mM,12 mg/kg
same,Residual Fe in extracted pellet,[9]; chelator 5.0 mM,230 mg/kg
same,Residual Mg in extracted pellet,[9]; chelator 5.0 mM,168 mg/kg
same,Residual Zn in extracted pellet,[9]; chelator 5.0 mM,18 mg/kg
CC(C)(S)[C@@H](N)C(=O)O [Penicillamine],"LogK, Co",[1],0
same,"LogK, Zn",[2],10.2
same,"LogK, Ca",[3],0
same,"LogK, Mg",[4],0
same,"LogK, Fe",[5],0
same,"LogK, Cu",[6]; Table 1,18.2
same,"LogK, Al",[7],0
bathocuproinedisulfonic acid [BC],"LogK, Co",[1],4.2
same,"LogK, Zn",[2],4.1
same,"LogK, Ca",[3],0
same,"LogK, Mg",[4],0
same,"LogK, Fe",[5],0
same,Effect of Chelators upon extraction of Aβ (% change from control),[8],301% and 400%
same,efficiency in extracting Aβ,[8],highly efficient
same,"LogK, Cu (Cu^+)","[6]; Table 1, value for Cu^+",19.1
same,"LogK, Al",[7],0
